Laboratory results published in patent US8410145B2, “Insecticidal compounds” (Syngenta Crop Protection LLC, priority 2007, dated 2013).

Key:
Format in all cases: in vivo
[1] = test system: Spodoptera littoralis, Heliothis virescens, Plutella xylostella, Diabrotica balteata, Thrips tabaci, Tetranychus urticae; test: Pesticidal tests, same protocols (all six pests taken together); conditions: same protocols as b207 (200 ppm), under the test conditions
Text: (§1) Cotton leaf discs were placed on agar in a 24-well microtiter plate and sprayed with test solutions at an application rate of 200 ppm. After drying, the leaf discs were infested with 5 to L1 larvae. The samples were checked for mortality, feeding behavior, and growth regulation 3 days after treatment (DAT). The following compounds gave at least 80% control of Spodoptera littoralis: A1, A2, A3, A4, A6, A9, A10, A11, A12, A13, A14, A15, A16, A19, A20, A22, A23, A25, A26, A27, B1, B2, B3, B5, B6, B7, B8, B9, B11, B12, B13, B15, B16, B18, B19, B20, B21, B22, B24, B26, B27, B28, C1, C2, C3, C4, C5, C6, C7, C8, C9, C10, C12, C13, C16, C19, C20, C21, C22, C23, D1, D2, D3, D4, D5, D6, D7, D8, D9, D10, D11, D12, D13, D14, D15, D16, D17, D18, D19, D20, D21, D22, D23, D24. Heliothis virescens (Tobacco Budworm): Eggs (0-24 h old) were placed in 24-well microtiter plate on artificial diet and treated with test solutions at an application rate of 200 ppm (concentration in well 18 ppm) by pipetting. After an incubation period of 4 days, samples were checked for egg mortality, larval mortality, and growth regulation. The following compounds gave at least 80% control of Heliothis virescens: A1, A2, A3, A4, A13, A15, A17, A19, A20, A22, A23, A25, A26, A28, B1, B2, B3, B5, B6, B7, B9, B11, B13, B15, B18, B19, B20, B21, B25, B26, B27, B28, C1, C2, C3, C4, C5, C6, C7, C8, C9, C10, C12, C14, C16, C17, C19, C20, C21, C22, D1, D2, D3, D4, D5, D6, D7, D8, D9, D10, D11, D12, D13, D14, D15, D16, D17, D18, D19, D20, D21, D22, D23, E1, E2, E3, E4, E5. Plutella xylostella (Diamond Back Moth): 24-well microtiter plate (MTP) with artificial diet was treated with test solutions at an application rate of 200 ppm (concentration in well 18 ppm) by pipetting. After drying, the MTP's were infested with L2 larvae (7-12 per well). After an incubation period of 6 days, samples were checked for larval mortality and growth regulation. The following compounds gave at least 80% control of Plutella xylostella: A1, A3, A4, A10, All, A15, A19, A23, A25, B1, B2, B3, B5, B6, B7, B8, B9, B11, B13, B15, B18, B19, B20, B21, B26, B27, B28, C1, C2, C3, C4, C6, C7, C8, C9, C12, C16, C19, C20, C22, D1, D2, D3, D4, D5, D6, D7, D8, D9, D10, D12, D13, D14, D15, D16, D17, D18, D19, D20, D21, D22, D23, E1, E3, E5. Diabrotica balteata (Corn Root Worm): A 24-well microtiter plate (MTP) with artificial diet was treated with test solutions at an application rate of 200 ppm (concentration in well 18 ppm) by pipetting. After drying, the MTP's were infested with L2 larvae (6-10 per well). After an incubation period of 5 days, samples were checked for larval mortality and growth regulation. The following compounds gave at least 80% control of Diabrotica balteata: A2, A3, A4, A9, A11, A12, A13, A14, A15, A17, A19, A21, A22, A23, A24, A25, A26, B1, B2, B3, B6, B7, B8, B11, B13, B14, B15, B18, B19, B20, B21, B22, B26, B28, C1, C2, C3, C4, C5, C6, C7, C8, C9, C10, C12, C14, C15, C16, C19, C20, C21, C22, C23, C26, D1, D2, D4, D5, D6, D7, D8, D9, D10, D12, D14, D15, D16, D17, D18, D19, D20, D21, D22, D23, E2, E3, E5. Thrips tabaci (Onion Thrips): Sunflower leaf discs were placed on agar in a 24-well microtiter plate and sprayed with test solutions at an application rate of 200 ppm. After drying, the leaf discs were infested with an […] population of mixed ages. After an incubation period of 7 days, samples were checked for mortality. The following compounds gave at least 80% control of Thrips tabaci: B1, B7, B11, B15, B18, B19, B28, D1, D2, D3, D4, D5, D6, D7, D8, D9, D10, D12, D16, D18, D19, D20, D21, D23. Tetranychus urticae (Two-Spotted Spider Mite): Bean leaf discs on agar in 24-well microtiter plates were sprayed with test solutions at an application rate of 200 ppm. After drying, the leaf discs are infested with mite populations of mixed ages. 8 days later, discs are checked for egg mortality, larval mortality, and adult mortality. […]

[2] = test system: Heliothis virescens (Tobacco Budworm); test: Heliothis virescens egg test on artificial diet; conditions: 96 h, 200 ppm (concentration in well 18 ppm), eggs 0-24 h old on artificial diet, egg mortality, larval mortality, growth regulation after 4 days
Text: as §1

[3] = test system: Plutella xylostella (Diamond Back Moth); test: Plutella xylostella larvae test on artificial diet; conditions: 144 h, 200 ppm (concentration in well 18 ppm), L2 larvae, larval mortality and growth regulation after 6 days
Text: as §1

[4] = test system: Spodoptera littoralis (Egyptian Cotton Leafworm); test: Spodoptera littoralis cotton leaf disc spray test; conditions: foliar, 72 h, 200 ppm spray on cotton leaf discs, L1 larvae, mortality, feeding behavior, growth regulation 3 DAT
Text: as §1

[5] = test system: Diabrotica balteata (Corn Root Worm); test: Diabrotica balteata larvae test on artificial diet; conditions: 120 h, 200 ppm (concentration in well 18 ppm), L2 larvae, larval mortality and growth regulation after 5 days
Text: as §1

| SMILES | effect on mortality, feeding behavior, or growth regulation [1] | pest or weed control at 200 ppm [2] | pest or weed control at 200 ppm [3] | pest or weed control at 200 ppm [4] | pest or weed control at 200 ppm [5] |
| --- | --- | --- | --- | --- | --- |
| O=C(Nc1cc(C2=NOC(c3cc(Cl)cc(Cl)c3)(C(F)(F)F)C2)ccc1F)c1cc(C(F)(F)F)ccc1F (racemic) [C25] | little or no effect |  |  |  |  |
| O=C(Nc1cc(C2=NOC(c3cc(Cl)cc(Cl)c3)(C(F)(F)F)C2)ccc1F)c1cc(Cl)ccc1F (racemic) [C11] | little or no effect |  |  |  |  |
| Cc1cc(NC(=O)c2ccc(C#N)cc2)cc(C2=NOC(c3cc(Cl)cc(Cl)c3)(C(F)(F)F)C2)c1 (stereo not shown) [E1] |  | ≥ 80% | ≥ 80% |  |  |
| O=C(Nc1cccc(C2=NOC(c3cc(Cl)cc(Cl)c3)(C(F)(F)F)C2)c1F)c1cc(C(F)(F)F)ccc1F (racemic) [B23] | little or no effect |  |  |  |  |
| O=C(Nc1cccc(C2=NOC(c3cc(Cl)cc(Cl)c3)(C(F)(F)F)C2)c1)c1ccc(F)c(C(F)(F)F)c1 (racemic) [A18] | little or no effect |  |  |  |  |
| O=C(Nc1cccc(C2=NOC(c3cc(Cl)cc(Cl)c3)(C(F)(F)F)C2)c1F)c1ccccc1Cl (stereo not shown) [B3] |  | ≥ 80% | ≥ 80% | ≥ 80% | ≥ 80% |
| N#Cc1ccc(C2=NOC(c3cc(Cl)cc(Cl)c3)(C(F)(F)F)C2)cc1NC(=O)c1cccc(F)c1F (stereo not shown) [D22] |  | ≥ 80% | ≥ 80% | ≥ 80% | ≥ 80% |
| COCC(=O)Nc1cccc(C2=NOC(c3cc(Cl)cc(Cl)c3)(C(F)(F)F)C2)c1 (stereo not shown) [A7] | little or no effect |  |  |  |  |
| Cc1ccccc1C(=O)Nc1cccc(C2=NOC(c3cc(Cl)cc(Cl)c3)(C(F)(F)F)C2)c1F (stereo not shown) [B2] |  | ≥ 80% | ≥ 80% | ≥ 80% | ≥ 80% |
| O=C(Nc1cccc(C2=NOC(c3cc(Cl)cc(Cl)c3)(C(F)(F)F)C2)c1F)c1cccnc1 (stereo not shown) [B26] |  | ≥ 80% | ≥ 80% | ≥ 80% | ≥ 80% |
| N#Cc1ccc(C(=O)Nc2cccc(C3=NOC(c4cc(Cl)cc(Cl)c4)(C(F)(F)F)C3)c2F)cc1 (stereo not shown) [B4] | little or no effect |  |  |  |  |
| O=C(Nc1cccc(C2=NOC(c3cc(Cl)cc(Cl)c3)(C(F)(F)F)C2)c1F)c1ccc(F)cc1F (stereo not shown) [B22] |  |  |  | ≥ 80% | ≥ 80% |
| O=C(Nc1cc(C2=NOC(c3cc(Cl)cc(Cl)c3)(C(F)(F)F)C2)ccc1F)c1ccco1 (stereo not shown) [C13] |  |  |  | ≥ 80% |  |
| N#Cc1ccc(C2=NOC(c3cc(Cl)cc(Cl)c3)(C(F)(F)F)C2)cc1NC(=O)c1ccco1 (stereo not shown) [D13] |  | ≥ 80% | ≥ 80% | ≥ 80% |  |
| O=C(Nc1cc(C2=NOC(c3cc(Cl)cc(Cl)c3)(C(F)(F)F)C2)ccc1F)c1ccccc1 (stereo not shown) [C19] |  | ≥ 80% | ≥ 80% | ≥ 80% | ≥ 80% |
| O=C(Nc1cccc(C2=NOC(c3cc(Cl)cc(Cl)c3)(C(F)(F)F)C2)c1F)c1ccccn1 (stereo not shown) [B25] |  | ≥ 80% |  |  |  |
| Cc1ccc(C(=O)Nc2cccc(C3=NOC(c4cc(Cl)cc(Cl)c4)(C(F)(F)F)C3)c2F)cc1 (stereo not shown) [B6] |  | ≥ 80% | ≥ 80% | ≥ 80% | ≥ 80% |
| N#Cc1ccc(C(=O)Nc2cc(C3=NOC(c4cc(Cl)cc(Cl)c4)(C(F)(F)F)C3)ccc2F)cc1 (stereo not shown) [C1] |  | ≥ 80% | ≥ 80% | ≥ 80% | ≥ 80% |
| O=C(Nc1cc(C2=NOC(c3cc(Cl)cc(Cl)c3)(C(F)(F)F)C2)ccc1F)c1ccccc1F (stereo not shown) [C5] |  | ≥ 80% |  | ≥ 80% | ≥ 80% |
| O=C(Nc1cc(C2=NOC(c3cc(Cl)cc(Cl)c3)(C(F)(F)F)C2)ccc1F)c1ccc([N+](=O)[O-])cc1 (stereo not shown) [C8] |  | ≥ 80% | ≥ 80% | ≥ 80% | ≥ 80% |
| O=C(Nc1cc(C2=NOC(c3cc(Cl)cc(Cl)c3)(C(F)(F)F)C2)ccc1F)c1cccc(F)c1F (stereo not shown) [C23] |  |  |  | ≥ 80% | ≥ 80% |
| Cc1ccccc1C(=O)Nc1cc(C2=NOC(c3cc(Cl)cc(Cl)c3)(C(F)(F)F)C2)ccc1F (stereo not shown) [C6] |  | ≥ 80% | ≥ 80% | ≥ 80% | ≥ 80% |
| O=C(Nc1cc(C2=NOC(c3cc(Cl)cc(Cl)c3)(C(F)(F)F)C2)ccc1F)c1ccccc1Cl (stereo not shown) [C7] |  | ≥ 80% | ≥ 80% | ≥ 80% | ≥ 80% |
| O=C(Nc1cccc(C2=NOC(c3cc(Cl)cc(Cl)c3)(C(F)(F)F)C2)c1F)c1cccc(F)c1F (stereo not shown) [B21] |  | ≥ 80% | ≥ 80% | ≥ 80% | ≥ 80% |
| CSc1ccccc1C(=O)Nc1cccc(C2=NOC(c3cc(Cl)cc(Cl)c3)(C(F)(F)F)C2)c1F (stereo not shown) [B27] |  | ≥ 80% | ≥ 80% | ≥ 80% |  |
| O=C(Nc1cc(C2=NOC(c3cc(Cl)cc(Cl)c3)(C(F)(F)F)C2)ccc1F)c1ccc(F)cc1 (stereo not shown) [C20] |  | ≥ 80% | ≥ 80% | ≥ 80% | ≥ 80% |
| CCCCC(=O)Nc1cccc(C2=NOC(c3cc(Cl)cc(Cl)c3)(C(F)(F)F)C2)c1 (stereo not shown) [A6, pentanoic acid {3-[5-(3,5-dichloro-phenyl)-5-trifluoromethyl-4,5-dihydro-isoxazol-3-yl]-phenyl}-amide] |  |  |  | ≥ 80% |  |
| O=C(Nc1cccc(C2=NOC(c3cc(Cl)cc(Cl)c3)(C(F)(F)F)C2)c1F)c1ccccc1 (stereo not shown) [B16] |  |  |  | ≥ 80% |  |
